How the values were obtained:
Assay in all cases: HotSpot kinase assay
[1] = biological target: TRPM7/CHAK1 (Homo sapiens, UniProt Q96QT4); conditions: read-out: % Enzyme Activity (relative to DMSO control), 10 uM
[2] = biological target: CDK1/cyclin E (Homo sapiens, UniProt P06493); conditions: read-out: % Enzyme Activity (relative to DMSO control), 10 uM
[3] = biological target: TAOK3/JIK (Homo sapiens, UniProt Q9H2K8); conditions: read-out: % Enzyme Activity (relative to DMSO control), 10 uM
[4] = biological target: PIM1 (Homo sapiens, UniProt P11309); conditions: read-out: % Enzyme Activity (relative to DMSO control), 10 uM
From the text: (§1) Additionally, a 10-dose dilution series of staurosporine and other enzyme-appropriate compounds were included as positive control inhibitors.

[5] = biological target: T1, TAOK2/TAO1 (Homo sapiens, UniProt Q9UL54); conditions: for IC50: ATP 10 µM
T1 sequence (Q9UL54 1-1235): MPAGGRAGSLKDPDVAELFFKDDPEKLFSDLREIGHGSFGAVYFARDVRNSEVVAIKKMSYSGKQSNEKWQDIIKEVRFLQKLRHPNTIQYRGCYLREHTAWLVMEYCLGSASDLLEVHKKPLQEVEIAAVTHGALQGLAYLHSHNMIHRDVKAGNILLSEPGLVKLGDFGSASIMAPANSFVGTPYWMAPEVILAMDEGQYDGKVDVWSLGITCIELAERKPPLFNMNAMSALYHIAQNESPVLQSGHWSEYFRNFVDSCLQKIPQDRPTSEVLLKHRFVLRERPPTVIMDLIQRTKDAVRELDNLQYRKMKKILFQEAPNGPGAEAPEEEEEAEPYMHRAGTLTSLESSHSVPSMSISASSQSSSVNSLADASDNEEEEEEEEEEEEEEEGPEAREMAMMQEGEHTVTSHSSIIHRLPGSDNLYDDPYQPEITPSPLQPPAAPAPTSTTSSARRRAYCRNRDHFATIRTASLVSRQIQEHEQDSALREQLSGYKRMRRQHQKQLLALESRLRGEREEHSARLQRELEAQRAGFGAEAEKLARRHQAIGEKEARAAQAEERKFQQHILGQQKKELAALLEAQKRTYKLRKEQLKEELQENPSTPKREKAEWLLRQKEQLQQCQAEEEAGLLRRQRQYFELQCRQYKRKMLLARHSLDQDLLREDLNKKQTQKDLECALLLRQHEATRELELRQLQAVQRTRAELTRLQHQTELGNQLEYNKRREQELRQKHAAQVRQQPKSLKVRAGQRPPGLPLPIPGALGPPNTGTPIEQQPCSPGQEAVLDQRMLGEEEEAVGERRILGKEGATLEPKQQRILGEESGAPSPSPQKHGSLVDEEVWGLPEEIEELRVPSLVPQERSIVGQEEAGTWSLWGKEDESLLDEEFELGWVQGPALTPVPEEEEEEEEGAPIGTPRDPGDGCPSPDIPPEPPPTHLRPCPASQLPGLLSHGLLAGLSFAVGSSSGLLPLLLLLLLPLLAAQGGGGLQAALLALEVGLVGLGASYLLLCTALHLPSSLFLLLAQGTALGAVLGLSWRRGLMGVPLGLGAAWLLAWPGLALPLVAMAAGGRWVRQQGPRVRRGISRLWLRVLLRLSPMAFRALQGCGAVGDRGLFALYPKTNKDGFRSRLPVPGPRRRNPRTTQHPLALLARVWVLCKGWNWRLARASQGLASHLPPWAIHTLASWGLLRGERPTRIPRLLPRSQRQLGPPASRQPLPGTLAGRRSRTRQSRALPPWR
From the text: as §1

[6] = biological target: RSK2 (Homo sapiens, UniProt P51812); conditions: read-out: % Enzyme Activity (relative to DMSO control), 10 uM
From the text: as §1

[7] = biological target: GRK4 (Homo sapiens, UniProt P32298); conditions: read-out: % Enzyme Activity (relative to DMSO control), 10 uM
From the text: as §1

[8] = biological target: MEKK6 (Homo sapiens, UniProt O95382); conditions: read-out: % Enzyme Activity (relative to DMSO control), 10 uM
From the text: as §1

[9] = biological target: CDK5/P25 (Homo sapiens, UniProt Q00535); conditions: read-out: % Enzyme Activity (relative to DMSO control), 10 uM
From the text: as §1

[10] = biological target: ALK3/BMPR1A (Homo sapiens, UniProt P36894); conditions: read-out: % Enzyme Activity (relative to DMSO control), 10 uM
Chain of ALK3/BMPR1A (P36894 24-532): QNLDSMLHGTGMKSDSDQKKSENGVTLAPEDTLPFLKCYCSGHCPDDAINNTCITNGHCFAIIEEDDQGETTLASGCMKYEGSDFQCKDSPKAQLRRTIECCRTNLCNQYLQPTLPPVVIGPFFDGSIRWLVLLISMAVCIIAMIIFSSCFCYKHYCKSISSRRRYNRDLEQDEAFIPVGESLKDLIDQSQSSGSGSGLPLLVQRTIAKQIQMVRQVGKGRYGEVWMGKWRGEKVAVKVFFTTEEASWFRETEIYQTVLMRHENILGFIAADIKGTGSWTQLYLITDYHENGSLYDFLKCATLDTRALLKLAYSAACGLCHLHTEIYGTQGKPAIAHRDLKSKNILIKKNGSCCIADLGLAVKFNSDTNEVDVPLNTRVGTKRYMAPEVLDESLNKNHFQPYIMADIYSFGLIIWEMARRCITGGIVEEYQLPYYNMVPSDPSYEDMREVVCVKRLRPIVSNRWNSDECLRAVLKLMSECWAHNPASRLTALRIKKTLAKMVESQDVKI
From the text: as §1

[11] = biological target: EPHA7 (Homo sapiens, UniProt Q15375); conditions: read-out: % Enzyme Activity (relative to DMSO control), 10 uM
Chain of EPHA7 (Q15375 28-998): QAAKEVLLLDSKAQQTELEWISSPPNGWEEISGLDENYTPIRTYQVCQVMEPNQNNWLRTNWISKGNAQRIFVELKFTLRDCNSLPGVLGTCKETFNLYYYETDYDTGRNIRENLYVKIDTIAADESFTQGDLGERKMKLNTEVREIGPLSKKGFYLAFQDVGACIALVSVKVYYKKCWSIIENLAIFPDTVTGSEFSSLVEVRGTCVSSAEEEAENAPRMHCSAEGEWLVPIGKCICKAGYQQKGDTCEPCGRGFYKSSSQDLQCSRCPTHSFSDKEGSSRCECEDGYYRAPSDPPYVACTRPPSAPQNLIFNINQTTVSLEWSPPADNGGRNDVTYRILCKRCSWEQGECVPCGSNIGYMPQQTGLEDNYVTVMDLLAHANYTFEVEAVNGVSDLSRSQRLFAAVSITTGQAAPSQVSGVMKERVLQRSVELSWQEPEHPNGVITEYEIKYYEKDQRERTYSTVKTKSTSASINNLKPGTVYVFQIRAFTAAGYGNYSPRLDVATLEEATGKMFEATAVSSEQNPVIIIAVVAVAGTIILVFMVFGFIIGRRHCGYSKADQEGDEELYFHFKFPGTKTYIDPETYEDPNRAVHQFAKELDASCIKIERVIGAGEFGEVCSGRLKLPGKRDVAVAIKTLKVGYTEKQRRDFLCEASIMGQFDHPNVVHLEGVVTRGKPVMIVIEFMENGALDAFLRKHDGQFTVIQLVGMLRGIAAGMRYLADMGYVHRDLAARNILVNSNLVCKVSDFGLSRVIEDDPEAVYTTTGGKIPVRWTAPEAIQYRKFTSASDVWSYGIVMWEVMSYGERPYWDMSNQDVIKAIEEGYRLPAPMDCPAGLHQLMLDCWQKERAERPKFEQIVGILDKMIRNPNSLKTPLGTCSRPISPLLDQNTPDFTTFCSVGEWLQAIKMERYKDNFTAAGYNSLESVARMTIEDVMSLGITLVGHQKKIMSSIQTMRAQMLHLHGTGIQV
From the text: as §1

[12] = biological target: BRK (Homo sapiens, UniProt Q13882); conditions: read-out: % Enzyme Activity (relative to DMSO control), 10 uM
Chain of BRK (Q13882 whole entry): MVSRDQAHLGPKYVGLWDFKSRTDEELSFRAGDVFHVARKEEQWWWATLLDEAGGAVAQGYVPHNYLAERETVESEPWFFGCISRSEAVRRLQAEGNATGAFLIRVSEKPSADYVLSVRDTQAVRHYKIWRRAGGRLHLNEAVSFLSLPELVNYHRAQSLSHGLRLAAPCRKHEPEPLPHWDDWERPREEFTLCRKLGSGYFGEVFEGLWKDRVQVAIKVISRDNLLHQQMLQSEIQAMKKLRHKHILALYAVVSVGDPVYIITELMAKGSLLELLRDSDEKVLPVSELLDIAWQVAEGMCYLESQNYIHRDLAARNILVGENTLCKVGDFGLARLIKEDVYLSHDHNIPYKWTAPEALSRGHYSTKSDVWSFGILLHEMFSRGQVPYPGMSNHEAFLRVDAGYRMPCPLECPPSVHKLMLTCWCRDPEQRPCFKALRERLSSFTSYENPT
From the text: as §1

[13] = biological target: TYK2 (Homo sapiens, UniProt P29597); conditions: read-out: % Enzyme Activity (relative to DMSO control), 10 uM
From the text: as §1

[14] = biological target: JAK1 (Homo sapiens, UniProt P23458); conditions: read-out: % Enzyme Activity (relative to DMSO control), 10 uM
From the text: as §1

[15] = biological target: MELK (Homo sapiens, UniProt Q14680); conditions: read-out: % Enzyme Activity (relative to DMSO control), 10 uM
Chain of MELK (Q14680 whole entry): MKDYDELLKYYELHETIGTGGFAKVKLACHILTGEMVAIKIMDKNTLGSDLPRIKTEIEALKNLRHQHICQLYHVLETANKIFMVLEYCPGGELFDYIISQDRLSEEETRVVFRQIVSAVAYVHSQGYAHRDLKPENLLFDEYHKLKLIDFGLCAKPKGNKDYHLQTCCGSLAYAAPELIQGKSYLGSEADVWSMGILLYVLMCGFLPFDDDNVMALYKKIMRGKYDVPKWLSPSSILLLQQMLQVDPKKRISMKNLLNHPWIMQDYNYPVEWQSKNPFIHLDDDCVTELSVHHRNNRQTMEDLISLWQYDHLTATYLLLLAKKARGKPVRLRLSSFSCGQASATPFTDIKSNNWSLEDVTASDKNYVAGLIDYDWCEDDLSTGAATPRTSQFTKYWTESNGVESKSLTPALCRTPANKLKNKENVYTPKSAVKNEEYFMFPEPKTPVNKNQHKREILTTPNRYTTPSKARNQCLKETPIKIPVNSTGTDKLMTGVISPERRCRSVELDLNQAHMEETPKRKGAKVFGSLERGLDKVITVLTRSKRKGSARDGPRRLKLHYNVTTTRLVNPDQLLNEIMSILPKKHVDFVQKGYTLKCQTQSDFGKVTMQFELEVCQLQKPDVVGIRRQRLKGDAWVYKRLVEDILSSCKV

[16] = biological target: SRPK1 (Homo sapiens, UniProt Q96SB4); conditions: read-out: % Enzyme Activity (relative to DMSO control), 10 uM
Chain of SRPK1 (Q96SB4 whole entry): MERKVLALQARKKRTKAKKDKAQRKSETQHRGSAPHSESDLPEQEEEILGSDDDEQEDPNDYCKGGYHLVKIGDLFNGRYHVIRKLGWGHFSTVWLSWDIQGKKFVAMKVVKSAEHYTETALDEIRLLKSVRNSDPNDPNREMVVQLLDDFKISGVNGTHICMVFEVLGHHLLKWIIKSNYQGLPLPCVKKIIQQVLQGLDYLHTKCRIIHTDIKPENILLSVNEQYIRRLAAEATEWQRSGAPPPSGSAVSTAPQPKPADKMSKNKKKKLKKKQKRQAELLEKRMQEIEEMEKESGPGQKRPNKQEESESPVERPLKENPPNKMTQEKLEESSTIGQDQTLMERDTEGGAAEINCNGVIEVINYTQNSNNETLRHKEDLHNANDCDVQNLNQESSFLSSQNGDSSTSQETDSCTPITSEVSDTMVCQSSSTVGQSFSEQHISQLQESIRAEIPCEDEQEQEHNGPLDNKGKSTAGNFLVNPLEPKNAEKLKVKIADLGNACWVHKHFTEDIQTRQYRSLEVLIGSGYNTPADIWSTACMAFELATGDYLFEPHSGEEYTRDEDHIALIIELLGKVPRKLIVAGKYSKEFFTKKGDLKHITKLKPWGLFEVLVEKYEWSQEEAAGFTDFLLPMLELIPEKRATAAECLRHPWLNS
From the text: as §1

[17] = biological target: MLK2/MAP3K10 (Homo sapiens, UniProt Q02779); conditions: read-out: % Enzyme Activity (relative to DMSO control), 10 uM
From the text: as §1

[18] = biological target: TGFBR2 (Homo sapiens, UniProt P37173); conditions: read-out: % Enzyme Activity (relative to DMSO control), 10 uM
From the text: as §1

[19] = biological target: CDK6/cyclin D1 (Homo sapiens, UniProt Q00534); conditions: read-out: % Enzyme Activity (relative to DMSO control), 10 uM
From the text: as §1

[20] = biological target: PKD2/PRKD2 (Homo sapiens, UniProt Q9BZL6); conditions: read-out: % Enzyme Activity (relative to DMSO control), 10 uM
From the text: as §1

[21] = biological target: SIK1 (Homo sapiens, UniProt P57059); conditions: read-out: % Enzyme Activity (relative to DMSO control), 10 uM
[22] = biological target: EPHB2 (Homo sapiens, UniProt P29323); conditions: read-out: % Enzyme Activity (relative to DMSO control), 10 uM
From the text: as §1

[23] = biological target: LIMK2 (Homo sapiens, UniProt P53671); conditions: read-out: % Enzyme Activity (relative to DMSO control), 10 uM
Chain of LIMK2 (P53671 whole entry): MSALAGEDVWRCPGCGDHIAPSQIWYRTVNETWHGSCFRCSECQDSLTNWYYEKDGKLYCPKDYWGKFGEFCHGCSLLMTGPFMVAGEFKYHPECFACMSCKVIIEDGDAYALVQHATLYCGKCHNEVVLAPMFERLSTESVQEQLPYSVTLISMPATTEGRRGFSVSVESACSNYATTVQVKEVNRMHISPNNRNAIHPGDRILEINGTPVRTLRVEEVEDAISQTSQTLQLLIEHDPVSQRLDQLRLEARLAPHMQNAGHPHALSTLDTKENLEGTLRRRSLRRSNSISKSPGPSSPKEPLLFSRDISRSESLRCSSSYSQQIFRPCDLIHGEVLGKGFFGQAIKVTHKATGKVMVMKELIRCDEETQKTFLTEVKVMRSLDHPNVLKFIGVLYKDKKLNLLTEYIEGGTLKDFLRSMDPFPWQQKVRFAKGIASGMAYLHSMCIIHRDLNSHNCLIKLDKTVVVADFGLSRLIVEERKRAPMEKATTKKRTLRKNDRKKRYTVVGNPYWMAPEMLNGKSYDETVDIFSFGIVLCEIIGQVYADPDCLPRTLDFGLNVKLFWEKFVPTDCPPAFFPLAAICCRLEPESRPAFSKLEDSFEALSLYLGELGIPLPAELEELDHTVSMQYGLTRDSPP
From the text: as §1

[24] = biological target: RIPK2 (Homo sapiens, UniProt O43353); conditions: read-out: % Enzyme Activity (relative to DMSO control), 10 uM

Chain of TAOK3/JIK (Q9H2K8 whole entry): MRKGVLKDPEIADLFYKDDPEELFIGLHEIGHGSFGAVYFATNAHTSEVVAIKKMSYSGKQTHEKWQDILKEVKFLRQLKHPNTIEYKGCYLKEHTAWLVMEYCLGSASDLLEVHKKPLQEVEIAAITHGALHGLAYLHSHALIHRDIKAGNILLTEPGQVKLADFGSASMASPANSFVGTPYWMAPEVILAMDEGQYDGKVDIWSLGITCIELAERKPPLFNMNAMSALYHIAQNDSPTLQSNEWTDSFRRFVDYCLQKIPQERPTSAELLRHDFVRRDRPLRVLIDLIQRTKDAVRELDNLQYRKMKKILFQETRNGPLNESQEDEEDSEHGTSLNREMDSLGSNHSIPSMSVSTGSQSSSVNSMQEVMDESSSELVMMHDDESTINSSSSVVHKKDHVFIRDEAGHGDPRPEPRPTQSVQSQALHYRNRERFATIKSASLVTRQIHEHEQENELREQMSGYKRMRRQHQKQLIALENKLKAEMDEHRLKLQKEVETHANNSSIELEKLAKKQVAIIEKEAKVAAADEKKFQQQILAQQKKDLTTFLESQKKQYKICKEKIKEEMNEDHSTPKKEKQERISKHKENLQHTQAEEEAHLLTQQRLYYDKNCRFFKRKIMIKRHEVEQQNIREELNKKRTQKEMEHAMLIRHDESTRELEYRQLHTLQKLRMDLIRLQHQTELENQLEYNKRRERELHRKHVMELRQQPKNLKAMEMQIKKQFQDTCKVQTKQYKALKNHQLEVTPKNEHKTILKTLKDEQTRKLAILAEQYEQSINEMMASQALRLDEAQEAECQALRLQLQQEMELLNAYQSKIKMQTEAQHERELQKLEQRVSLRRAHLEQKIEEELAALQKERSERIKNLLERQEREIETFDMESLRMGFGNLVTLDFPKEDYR

C#C[C@@](C)(c1ccc(Cl)cc1)c1csc(NC(=O)c2c(F)cc(N3CCNCC3)cc2F)n1 (stereo in doubt) [DF-003]
remaining activity at 10 µM [1]: 104% | remaining activity at 10 µM [2]: 83.6% | remaining activity at 10 µM [3]: 21.7% | remaining activity at 10 µM [4]: 74% | IC50 ([5]; DF-003 IC50 (nM), 10-dose): 1290 nM | IC50 ([5]; IC50, 10-dose): 1290 nM | remaining activity at 10 µM ([5]; read-out: % Enzyme Activity (relative to DMSO control), 10 uM): 5.89% | remaining activity at 10 µM [6]: 104% | remaining activity at 10 µM [7]: 108% | remaining activity at 10 µM [8]: 73.4% | remaining activity at 10 µM [9]: 98.6% | remaining activity at 10 µM [10]: 103% | remaining activity at 10 µM [11]: 105% | remaining activity at 10 µM [12]: 81.2% | remaining activity at 10 µM [13]: 82.7% | remaining activity at 10 µM [14]: 84.6% | remaining activity at 10 µM [15]: 96.6% | remaining activity at 10 µM [16]: 125% | remaining activity at 10 µM [17]: 67.5% | remaining activity at 10 µM [18]: 91.5% | remaining activity at 10 µM [19]: 99.8% | remaining activity at 10 µM [20]: 85.9% | remaining activity at 10 µM [21]: 99.8% | remaining activity at 10 µM [22]: 101% | remaining activity at 10 µM [23]: 85.2% | remaining activity at 10 µM [24]: 125%

— article PMC12420824, “Discovery of a selective alpha-kinase 1 inhibitor for the rare genetic disease ROSAH syndrome” (Nature Communications, 2025)
